In patent US20160158149A1, “Inhalable Pharmaceutical Compositions and the Inhaler Devices Containing Them” (priority 2013, published 2016):

Experiments:
[1] = Fine particle dose (FPD) of the inhaler assembly, invention versus conventional; assay type: physicochemical; conditions: aerodynamic diameter 1 to 5 μm, assembly of the invention relative to conventional disk-shaped inhaler
Description: (§1) Pharmacokinetic data of an assembly for an inhaler according to the different embodiments of the invention described above together with the different variants of the pharmaceutical composition of the invention including salmeterol xinafoate and fluticasone proprionate were determined in comparison to the pharmacokinetic data of a conventional assembly including a disk-shaped inhaler housing a mixture of salmeterol xinafoate and fluticasone proprionate. Such a disk shaped inhaler is for example described in the PCT application WO 2001/97886 A1.
(§2) In particular, the fine particle dose (FPD), which is the amount of particles with an aerodynamic diameter of between 1 to 5 μm, the area under the curve (AUC), corresponds to the integral of the plasma concentration of an administered pharmaceutical drug substance versus an interval of definite time and Cmax, which is the maximum concentration measured for a pharmaceutical in the blood of test persons after it was administrated and prior to the administration of a second dose, were determined.

[2] = Pharmacokinetic data (AUC, Cmax) after inhalation, invention versus conventional assembly; assay type: in vivo, test persons
Description: as §1, §2

SMILES | Ratio invention/conventional FPD 1-5 μm [1] | Ratio invention/conventional Point estimate Cmax ([2]; maximum concentration in blood of test persons, assembly of the invention relative to conventional disk-shaped inhaler) | Ratio invention/conventional Point estimate AUC ([2]; plasma concentration versus time, assembly of the invention relative to conventional disk-shaped inhaler) | Ratio invention/conventional Point estimate AUC ([2]; human, in vivo) | Ratio invention/conventional Point estimate Cmax ([2]; human, in vivo, inhaled or intranasal)
CCC(=O)O[C@]1(C(=O)SCF)[C@H](C)C[C@H]2[C@@H]3C[C@H](F)C4=CC(=O)C=C[C@]4(C)[C@@]3(F)[C@@H](O)C[C@@]21C [Fluticasone, fluticasone proprionate] | 0.93 | 1.66 | 1.42 |  | 
OCc1cc(C(O)CNCCCCCCOCCCCc2ccccc2)ccc1O (stereo not drawn) [Salmeterol, salmeterol xinafoate] | 0.90 |  |  | 1.25 | 1.69
